Laboratory results from ChEMBL document CHEMBL3585333, “Higenamine 4'-O-β-d-glucoside in the lotus plumule induces glucose uptake of L6 cells through β2-adrenergic receptor” (Bioorg Med Chem, 2015).
Activity calls are given as the source filed them. No cut-off for these calls is given here.

Columns and labels:
Type in all cases: cell-based
[1] = target: Beta-2 adrenergic receptor (Rattus norvegicus) (UniProt P10608); assay: Activation of beta-2 adrenergic receptor in rat L6 cells assessed as enhancement of 2-deoxyglucose uptake at 10 uM preincubated for 4 hrs followed by 2-deoxyglucose addition measured after 20 mins by fluorescence assay in presence of AMPK inhibitor dorsomorphin
Beta-2 adrenergic receptor (Rattus norvegicus), sequence (P10608 whole entry, looked up): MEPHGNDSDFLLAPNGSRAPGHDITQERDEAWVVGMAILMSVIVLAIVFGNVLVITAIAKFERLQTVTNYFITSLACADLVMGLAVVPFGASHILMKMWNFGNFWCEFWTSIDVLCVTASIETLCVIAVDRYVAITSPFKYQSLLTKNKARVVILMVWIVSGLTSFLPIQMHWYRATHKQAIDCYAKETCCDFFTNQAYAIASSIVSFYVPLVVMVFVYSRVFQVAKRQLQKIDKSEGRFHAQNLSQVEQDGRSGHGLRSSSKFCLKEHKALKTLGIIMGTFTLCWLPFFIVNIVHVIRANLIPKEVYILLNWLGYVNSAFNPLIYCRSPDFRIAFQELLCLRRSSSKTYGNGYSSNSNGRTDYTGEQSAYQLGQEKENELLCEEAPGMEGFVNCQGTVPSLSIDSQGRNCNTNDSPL

[2] = target: Beta-2 adrenergic receptor (Rattus norvegicus) (UniProt P10608); assay: Activation of beta-2 adrenergic receptor in rat L6 cells assessed as enhancement of 2-deoxyglucose uptake at 10 uM preincubated for 4 hrs followed by 2-deoxyglucose addition measured after 20 mins by fluorescence assay in presence of beta-2 selective adrenergic receptor antagonist ICI118551
[3] = target: Beta-2 adrenergic receptor (Rattus norvegicus) (UniProt P10608); assay: Activation of beta-2 adrenergic receptor in rat L6 cells assessed as enhancement of 2-deoxyglucose uptake preincubated for 4 hrs followed by 2-deoxyglucose addition measured after 20 mins by fluorescence assay
[4] = target: Beta-2 adrenergic receptor (Rattus norvegicus) (UniProt P10608); assay: Activation of beta-2 adrenergic receptor in rat L6 cells assessed as enhancement of 2-deoxyglucose uptake at 10 uM preincubated for 4 hrs followed by 2-deoxyglucose addition measured after 20 mins by fluorescence assay relative to control
[5] = target: Beta-2 adrenergic receptor (Rattus norvegicus) (UniProt P10608); assay: Activation of beta-2 adrenergic receptor in rat L6 cells assessed as enhancement of 2-deoxyglucose uptake at 10 uM preincubated for 4 hrs followed by 2-deoxyglucose addition measured after 20 mins by fluorescence assay in presence of PI3K inhibitor LY294002
[6] = target: Beta-2 adrenergic receptor (Rattus norvegicus) (UniProt P10608); assay: Activation of beta-2 adrenergic receptor in rat L6 cells assessed as enhancement of 2-deoxyglucose uptake at 10 uM preincubated for 4 hrs followed by 2-deoxyglucose addition measured after 20 mins by fluorescence assay in presence of non-selective beta-adrenergic receptor antagonist propranolol

- Activity [1]: Active
- Activity [2]: inactive
- Activity [3]: Dose-dependent effect
- fold change (FC) [4]: 2.1
- Activity [5]: Active
- Activity [6]: inactive
Compound: OC[C@H]1O[C@@H](Oc2ccc(C[C@@H]3NCCc4cc(O)c(O)cc43)cc2)[C@H](O)[C@@H](O)[C@@H]1O
